Assay results as given in patent publication US7678918B2, “Intermediates for imidazonaphthyridines” (3M Innovative Properties Company, priority 1997, dated 2010).

Assays:
[1] = system: IFN; assay: Cytokine Induction in Human Cells: interferon (IFN) secreted by PBMCs, A549/encephalomyocarditis bioassay; type: cell-based; conditions: 18 to 24 hours
Procedure, shortened: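 Human PBMCs from healthy donors at 1.5-2×10^6 cells/mL in RPMI with 10% FBS, exposed to compounds (typically 0.1 to 100 μM, ≤1% DMSO) for 18 to 24 h at 37° C. Secreted IFN measured by A549/encephalomyocarditis virus cytopathic-effect bioassay, in alpha reference units/mL against NIH human leukocyte IFN standard.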

[2] = system: TNF; assay: Cytokine Induction in Human Cells: tumor necrosis factor (TNF) secreted by PBMCs, ELISA; type: cell-based; conditions: 18 to 24 hours
Procedure, shortened: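 Human donor PBMCs at 1.5-2×10^6 cells/mL in RPMI with 10% FBS were exposed to compound, generally at 0.1 to 100 μM (≤1% DMSO final), for 18 to 24 h at 37 °C. Secreted TNF in supernatant was measured by ELISA and reported as pg/mL.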
Further: call rule not given here.

SMILES	IFN induction ([1]; Dose Concentration 0.1 μM)	IFN induction ([1]; Dose Concentration 1.0 μM)	IFN induction ([1]; Dose Concentration 10.0 μM)	IFN induction ([1]; Dose Concentration 100.0 μM)	TNF induction ([2]; Dose Concentration 0.1 μM)	TNF induction ([2]; Dose Concentration 1.0 μM)	TNF induction ([2]; Dose Concentration 10.0 μM)	TNF induction ([2]; Dose Concentration 100.0 μM)
CCCCc1nc2c(N)nc3cccnc3c2n1CCCCNC(=O)c1ccc(C#N)cc1 [Example 176]	−	+	+	+	−	−	+	+
CCCCc1nc2c(N)nc3cccnc3c2n1CCCCNC(=O)c1c(C)cc(C)cc1C [Example 180]	+	+	+	+	±	+	+	+
CCCCc1nc2c(N)nc3cccnc3c2n1CCCCNC(=O)CCCCC(=O)OC [Example 182]	−	+	+	+	−	+	+	−
CCCCc1nc2c(N)nc3cccnc3c2n1CCCCNC(=O)c1cccnc1Cl [Example 183]	−	−	−	−	− and +	− and +	− and +	−
CCCCc1nc2c(N)nc3cccnc3c2n1CCCCNC(=O)Cc1ccc(OC)cc1 [Example 187]	−	+	+	+	−	+	+	−
CCCCc1nc2c(N)nc3cccnc3c2n1CCCCNC(=O)c1ccccc1OC [Example 188]	+	+	+	−	−	+	+	−
CCCCCCCOc1ccc(C(=O)NCCCCn2c(CCCC)nc3c(N)nc4cccnc4c32)cc1 [Example 190]	+	+	+	−	−	+	+	−
CCCCc1nc2c(N)nc3cccnc3c2n1CCNC(=O)Cc1ccsc1 [Example 191]		+	+	+		−	+	+
CCCCc1nc2c(N)nc3cccnc3c2n1CCNC(=O)CCCc1ccc([N+](=O)[O-])cc1 [Example 195]	−	−	+	−	−	+	+	+
CCCCc1nc2c(N)nc3cccnc3c2n1CCNC(=O)Cc1ccc(SC)cc1 [Example 197]	−	−	+	+	−	+	+	+
CCCCc1nc2c(N)nc3cccnc3c2n1CCNC(=O)C1C2CC3C(C2=O)C31 (stereo not drawn) [Example 198]	−	−	+	+	−	+	+	+
CCCCc1nc2c(N)nc3cccnc3c2n1CCNC(=O)CCC(F)(F)F [Example 199]	+	−	+	+	−	−	+	+
CCCCCCCCCCCC(=O)NCCn1c(CCCC)nc2c(N)nc3cccnc3c21 [Example 201]	−	−	−	−	−	−	−	+
CCCCc1nc2c(N)nc3cccnc3c2n1CCNC(=O)c1ccc(Br)s1 [Example 204]	+	+	+	+	−	+	+	+
CCCCc1nc2c(N)nc3cccnc3c2n1CCNC(=O)c1cnc(C)cn1 [Example 205]	+	+	+	+	−	+	+	+
CCCCc1nc2c(N)nc3cccnc3c2n1CCNC(=O)c1ccc(Br)o1 [Example 206]	+	+	+	+	−	+	+	+
CCCCc1nc2c(N)nc3cccnc3c2n1CCNC(=O)Cc1cccnc1 [Example 207]	−	−	+	+	−	−	+	+
CCCCc1nc2c(N)nc3cccnc3c2n1CCNC(=O)CCc1cccnc1 [Example 208]	−	−	+	+	−	− and ±	− and +	− and +
CCCCc1nc2c(N)nc3cccnc3c2n1CCNC(=O)CCn1cc([N+](=O)[O-])nc1C [Example 209]	−	−	+	+	−	−	+	+
CCCCc1nc2c(N)nc3cccnc3c2n1CCNC(=O)C1CC(=O)N(Cc2ccc(Cl)cc2)C1 (stereo not drawn) [Example 210]	−	−	+	+	+	+	+	+
CCCCc1nc2c(N)nc3cccnc3c2n1CCNC(=O)CCN1C(=O)c2ccccc2C1=O [Example 211]	−	−	+	+	−	−	+	+
CCCCc1nc2c(N)nc3cccnc3c2n1CCNC(=O)CCC(=O)c1cccs1 [Example 212]	−	+	+	+	−	+	+	+
